How the values were obtained:
human androgen receptor [1] = target: T1, human androgen receptor (Homo sapiens, UniProt P10275); assay: cell-based; settings: in the presence of 1 nM DHT
T1 construct: expressed in transfected cells; host or cells: CHO cells, cell line CHO-AR-pMMTV-LUC 1G12-A5-CA
T1 sequence (P10275 1-920): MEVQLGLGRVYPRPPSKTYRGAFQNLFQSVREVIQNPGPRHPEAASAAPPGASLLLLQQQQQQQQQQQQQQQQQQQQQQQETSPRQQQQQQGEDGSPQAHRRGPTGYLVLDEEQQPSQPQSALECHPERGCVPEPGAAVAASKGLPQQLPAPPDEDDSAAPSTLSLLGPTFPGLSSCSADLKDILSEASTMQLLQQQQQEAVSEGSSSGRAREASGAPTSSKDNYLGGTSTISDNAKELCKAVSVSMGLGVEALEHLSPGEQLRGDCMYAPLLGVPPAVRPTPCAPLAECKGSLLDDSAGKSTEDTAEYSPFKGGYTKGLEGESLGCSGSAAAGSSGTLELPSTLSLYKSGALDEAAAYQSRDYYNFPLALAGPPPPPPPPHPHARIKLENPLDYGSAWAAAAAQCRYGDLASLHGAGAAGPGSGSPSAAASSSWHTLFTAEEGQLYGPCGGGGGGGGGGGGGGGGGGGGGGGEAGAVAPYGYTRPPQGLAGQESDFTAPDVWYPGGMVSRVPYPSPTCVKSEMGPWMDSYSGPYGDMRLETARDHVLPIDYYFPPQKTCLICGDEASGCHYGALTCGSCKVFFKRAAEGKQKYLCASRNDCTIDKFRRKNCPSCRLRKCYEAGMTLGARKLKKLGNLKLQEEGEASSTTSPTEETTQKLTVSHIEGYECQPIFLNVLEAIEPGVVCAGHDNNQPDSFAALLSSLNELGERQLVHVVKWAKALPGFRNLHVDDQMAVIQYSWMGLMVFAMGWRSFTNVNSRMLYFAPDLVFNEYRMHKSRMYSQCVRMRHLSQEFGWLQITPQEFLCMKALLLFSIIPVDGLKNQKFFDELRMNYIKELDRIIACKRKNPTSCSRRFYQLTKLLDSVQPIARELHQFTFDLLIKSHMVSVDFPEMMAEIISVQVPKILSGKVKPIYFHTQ
Protocol: (§1) Compounds were tested for their Androgen Receptor activity in a transactivation assay and in a binding assay.
(§2) The (anti-)androgenic activity of test compounds (EC50 and intrinsic activity) was determined in an in vitro bioassay of Chinese hamster ovary (CHO) cells stably transfected with the human androgen receptor expression plasmid and a reporter plasmid in which the MMTV-promoter is linked to the luciferase reporter gene. The cell-line CHO-AR-pMMTV-LUC 1G12-A5-CA is described in Schoonen et al. (2000), Journal of Steroid Biochemistry and Molecular Biology 74(4):213-222. The antiandrogenic activity of a test compound was determined by the inhibition of the transactivation via the androgen receptor of the enzyme luciferase in the presence of 1 nM DHT (5α-dihydrotestosterone, 17β-hydroxy-5α-androstan-3-one). Intrinsic activity of antiandrogenic activity was determined in the presence of the reference antiandrogen 2-Hydroxy-2-methyl-N-(4-nitro-3-trifluoromethyl-phenyl)-propionamide(Hydroxyflutamide), and set at 100%. For androgenic activity, maximal intrinsic activity in the presence of 100 nM DHT was set at 100%.

human androgen receptor [2] = target: T1, human androgen receptor; assay: androgenic activity (EC50 and intrinsic activity), transactivation bioassay in CHO-AR-pMMTV-LUC cells (Table 4); type: cell-based
Protocol: as §1, §2

[3] = antiandrogenic activity, read-out: ant EC50
[4] = androgenic activity, read-out: ago EC50

SMILES | EC50 (human androgen receptor [1]; [3]) [nM] | EC50 (human androgen receptor [2]; [4]) [nM] | EC50 (human androgen receptor [1]; ant EC50, antiandrogenic activity) [nM] | EC50 (human androgen receptor [2]; ago EC50, androgenic activity) [nM]
CC(C)CNC(=O)c1ccc2c(Sc3ccccc3[N+](=O)[O-])cn(Cc3cc(F)cc(F)c3)c2c1 [Compound 42] | > 10000 | 5 to 100 |  | 
O=C(NCc1ccccc1)c1ccc2c(Sc3ccccc3[N+](=O)[O-])cn(Cc3cc(F)cc(F)c3)c2c1 [Compound 43] | < 1000 | 5 to 100 |  | 
O=C(NC1CC1)c1ccc2c(Sc3ccccc3[N+](=O)[O-])cn(Cc3cc(F)cc(F)c3)c2c1 [Compound 44] | > 10000 | < 5 |  | 
CCNC(=O)c1ccc2c(Sc3ccccc3[N+](=O)[O-])cn(Cc3cc(F)cc(F)c3)c2c1 [Compound 45] | > 10000 | < 5 |  | 
CC(C)NC(=O)c1ccc2c(Sc3ccccc3[N+](=O)[O-])cn(Cc3cc(F)cc(F)c3)c2c1 [Compound 46] | 5 to 100 | 5 to 100 |  | 
CNC(=O)c1ccc2c(Sc3ccccc3[N+](=O)[O-])cn(Cc3cc(F)cc(F)c3)c2c1 [Compound 47, 1-(3,5-Difluoro-benzyl)-3-(2-nitro-phenylsulfanyl)-1H-indole-6-carboxylic acid methylamide] | > 10000 | < 5 |  | 
CCCNC(=O)c1ccc2c(Sc3ccccc3[N+](=O)[O-])cn(Cc3cc(F)cc(F)c3)c2c1 [Compound 48] | < 1000 | 5 to 100 |  | 
CN(C)C(=O)c1ccc2c(Sc3ccccc3[N+](=O)[O-])cn(Cc3cc(F)cc(F)c3)c2c1 [Compound 49] | > 10000 | < 5 |  | 
O=[N+]([O-])c1ccccc1Sc1cn(Cc2cc(F)cc(F)c2)c2cc(F)ccc12 [Compound 50] | > 10000 | 5 to 100 |  | 
O=[N+]([O-])c1ccccc1Sc1cn(Cc2cc(F)cc(F)c2)c2cccc(F)c12 [Compound 51] | > 10000 | < 5 |  | 
O=[N+]([O-])c1ccccc1Sc1cn(Cc2cc(F)cc(F)c2)c2ccccc12 [Compound 52] | > 10000 | 5 to 100 |  | 
O=[N+]([O-])c1ccccc1Sc1cn(Cc2cc(F)cc(F)c2)c2ccc(F)cc12 [Compound 53] | > 10000 | 5 to 100 |  | 
O=[N+]([O-])c1ccccc1Sc1cn(Cc2cc(F)cc(F)c2)c2cccc(Cl)c12 [Compound 54] | > 10000 | 5 to 100 |  | 
Cc1cccc2c1c(Sc1ccccc1[N+](=O)[O-])cn2Cc1cc(F)cc(F)c1 [Compound 55] | > 10000 | 5 to 100 |  | 
Nc1ccc2c(Sc3ccccc3[N+](=O)[O-])cn(Cc3cc(F)cc(F)c3)c2c1 [Compound 57, 1-(3,5-Difluoro-benzyl)-3-(2-nitro-phenylsulfanyl)-1H-indol-6-ylamine] | > 10000 | < 1000 |  | 
CC(=O)Nc1ccc2c(Sc3ccccc3[N+](=O)[O-])cn(Cc3cc(F)cc(F)c3)c2c1 [Compound 58, N-[1-(3,5-Difluoro-benzyl)-3-(2-nitro-phenylsulfanyl)-1H-indol-6-yl]-acetamide] | > 10000 | < 5 |  | 
O=C(Nc1ccc2c(Sc3ccccc3[N+](=O)[O-])cn(Cc3cc(F)cc(F)c3)c2c1)C(F)(F)F [Compound 59, N-[1-(3,5-Difluoro-benzyl)-3-(2-nitro-phenylsulfanyl)-1H-indol-6-yl]-2,2,2-trifluoro-acetamide] | > 10000 | < 5 |  | 
O=[N+]([O-])c1ccc2c(Sc3ccccc3[N+](=O)[O-])cn(Cc3cc(F)cc(F)c3)c2c1 [Compound 60] |  |  | > 10000 | < 5
COc1ccc2c(S(=O)(=O)c3ccccc3[N+](=O)[O-])cn(Cc3cc(F)cc(F)c3)c2c1 [Compound 62, 1-(3,5-Difluoro-benzyl)-6-methoxy-3-(2-nitro-benzenesulfonyl)-1H-indole] | > 10000 | < 5 |  | 
COc1ccc2c(Sc3ccccc3[N+](=O)[O-])cn(Cc3cc(F)cc(F)c3)c2c1 [Compound 63, 1-(3,5-Difluoro-benzyl)-6-methoxy-3-(2-nitro-phenylsulfanyl)-1H-indole] | > 10000 | < 5 |  | 
COc1ccc2c([S+]([O-])c3ccccc3[N+](=O)[O-])cn(Cc3cc(F)cc(F)c3)c2c1 (centres unmarked) [Compound 64, 1-(3,5-Difluoro-benzyl)-6-methoxy-3-(2-nitro-benzenesulfinyl)-1H-indole] | < 1000 | > 10000 |  | 
COc1ccc2c(Sc3ccccn3)cn(Cc3cc(F)cc(F)c3)c2c1 [Compound 65, 1-(3,5-Difluoro-benzyl)-6-methoxy-3-(pyridin-2-ylsulfanyl)-1H-indole] | > 10000 | 5 to 100 |  | 

— patent publication US8124647B2 (priority 2002, dated 2012)
